For this experiment, the target named is T1, PatA (Mycolicibacterium smegmatis, UniProt A0QWG5).
T1 sequence (A0QWG5 1-304): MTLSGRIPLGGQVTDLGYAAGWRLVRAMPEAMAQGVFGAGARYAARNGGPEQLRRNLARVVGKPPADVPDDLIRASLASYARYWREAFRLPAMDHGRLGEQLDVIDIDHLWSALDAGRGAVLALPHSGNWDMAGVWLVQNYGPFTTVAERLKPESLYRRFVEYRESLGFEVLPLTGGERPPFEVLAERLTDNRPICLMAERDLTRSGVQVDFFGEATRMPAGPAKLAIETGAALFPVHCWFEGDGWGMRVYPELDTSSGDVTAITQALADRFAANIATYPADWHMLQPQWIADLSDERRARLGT
In words: isothermal titration calorimetry. The experiment is classed as binding.

In general, Kd refers to the equilibrium constant for the complex coming apart.

`CCCCCCCCCCCCCCCCSCCNC(=O)CCNC(=O)[C@H](O)C(C)(C)COP(=O)(O)OP(=O)(O)OC[C@H]1O[C@@H](n2cnc3c(N)ncnc32)[C@H](O)[C@@H]1OP(=O)(O)O` [S-C16-CoA, S-hexadecyl-CoA] showed a Kd of 7.18 µM.

These data come from paper PMC8519569 (Science Advances, 2021).
